# Where “and” joins values, the source holds several entries; their conditions need not be identical. Equal values may be shown once.
# Tests used:
# [1] = test system: NaV channels endogenously expressed in GH3b6 cells; assay: FRET voltage sensor probe (VSP) assay of BTX-induced depolarization in GH3b6 cells; format: cell-based, rat; conditions: for Inhibitory Effects (%) on BTX-induced VSP signal (screening): IA at 10–50 µg/mL co-incubated with 1 µM BTX; for Inhibitory Effects (%) on BTX-induced VSP signal (screening) / Maximum of Inhibition of BTX-evoked VSP signal / IC50: GH3b6 cells; for Maximum of Inhibition of BTX-evoked VSP signal / IC50: BTX 1 µM, n = 6; for Maximum of Inhibition of BTX-evoked VSP signal: % printed only; for IC50: read-out: IC50 (µM), inhibition of BTX-evoked VSP signal
# human NaV1.3 channel = human NaV1.3 channel (Homo sapiens, UniProt Q9NY46); assay: ANG-2 intracellular Na+ fluorescent assay in HEK293-hNaV1.3 cells; format: cell-based
# hNaV1.2 channel = biological target: T1, hNaV1.2 channel (Homo sapiens, UniProt Q99250); assay: Automated patch-clamp, Na+ currents in HEK293-hNaV1.2 cells; format: cell-based; conditions: for Effect on Na+ currents elicited by hNaV1.2: HEK293-hNaV1.2
# T1 construct: expressed in transfected cells
# T1 sequence (Q99250 whole entry): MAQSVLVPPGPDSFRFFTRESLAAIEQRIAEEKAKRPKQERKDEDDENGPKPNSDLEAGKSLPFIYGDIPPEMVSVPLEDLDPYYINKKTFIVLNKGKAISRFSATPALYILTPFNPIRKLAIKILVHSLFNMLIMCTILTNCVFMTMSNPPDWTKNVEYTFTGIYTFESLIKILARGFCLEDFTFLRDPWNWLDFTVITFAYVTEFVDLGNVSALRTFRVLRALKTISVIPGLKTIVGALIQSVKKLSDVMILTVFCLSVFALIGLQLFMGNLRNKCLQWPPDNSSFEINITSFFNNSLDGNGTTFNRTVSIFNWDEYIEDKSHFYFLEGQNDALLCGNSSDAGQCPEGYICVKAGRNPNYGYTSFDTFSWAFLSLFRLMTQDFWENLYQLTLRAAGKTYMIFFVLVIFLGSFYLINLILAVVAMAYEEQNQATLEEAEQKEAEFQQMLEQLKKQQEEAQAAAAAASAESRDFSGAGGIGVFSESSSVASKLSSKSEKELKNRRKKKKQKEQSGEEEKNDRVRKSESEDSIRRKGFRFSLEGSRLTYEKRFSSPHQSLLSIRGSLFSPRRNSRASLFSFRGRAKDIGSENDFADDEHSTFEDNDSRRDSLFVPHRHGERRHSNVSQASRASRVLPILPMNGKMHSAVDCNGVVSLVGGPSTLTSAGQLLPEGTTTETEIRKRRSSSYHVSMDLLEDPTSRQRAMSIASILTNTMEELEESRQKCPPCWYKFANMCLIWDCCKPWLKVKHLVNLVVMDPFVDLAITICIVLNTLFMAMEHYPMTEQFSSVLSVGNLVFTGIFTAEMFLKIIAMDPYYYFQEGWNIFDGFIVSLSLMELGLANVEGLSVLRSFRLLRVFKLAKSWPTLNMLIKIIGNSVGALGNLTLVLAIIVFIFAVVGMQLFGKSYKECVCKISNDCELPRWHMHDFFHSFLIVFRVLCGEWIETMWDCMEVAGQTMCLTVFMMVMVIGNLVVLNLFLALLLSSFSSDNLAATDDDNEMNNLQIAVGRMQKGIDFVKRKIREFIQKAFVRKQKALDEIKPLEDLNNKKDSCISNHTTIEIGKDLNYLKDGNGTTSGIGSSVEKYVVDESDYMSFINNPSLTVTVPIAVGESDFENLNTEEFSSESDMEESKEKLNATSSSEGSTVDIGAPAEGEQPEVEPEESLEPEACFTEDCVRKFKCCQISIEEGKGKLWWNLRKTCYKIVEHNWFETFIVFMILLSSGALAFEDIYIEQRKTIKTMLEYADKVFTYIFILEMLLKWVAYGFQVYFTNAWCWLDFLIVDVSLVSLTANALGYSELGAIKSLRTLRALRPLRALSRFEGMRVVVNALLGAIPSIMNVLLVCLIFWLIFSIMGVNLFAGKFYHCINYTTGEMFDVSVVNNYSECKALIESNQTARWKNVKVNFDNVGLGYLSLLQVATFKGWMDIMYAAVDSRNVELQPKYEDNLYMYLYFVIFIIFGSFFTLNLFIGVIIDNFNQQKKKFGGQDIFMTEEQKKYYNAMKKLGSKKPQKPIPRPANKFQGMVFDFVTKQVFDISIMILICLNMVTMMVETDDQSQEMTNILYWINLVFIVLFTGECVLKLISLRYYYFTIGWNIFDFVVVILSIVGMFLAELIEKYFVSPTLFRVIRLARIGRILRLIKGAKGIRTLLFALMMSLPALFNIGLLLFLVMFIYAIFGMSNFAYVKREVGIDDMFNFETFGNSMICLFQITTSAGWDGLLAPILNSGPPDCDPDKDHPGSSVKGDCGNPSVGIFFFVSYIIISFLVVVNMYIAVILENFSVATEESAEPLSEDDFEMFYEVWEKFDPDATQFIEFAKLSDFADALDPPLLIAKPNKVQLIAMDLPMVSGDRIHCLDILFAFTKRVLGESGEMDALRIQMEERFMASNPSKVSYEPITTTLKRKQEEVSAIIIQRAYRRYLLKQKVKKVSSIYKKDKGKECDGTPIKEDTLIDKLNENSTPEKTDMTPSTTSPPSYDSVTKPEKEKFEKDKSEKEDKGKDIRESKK
# Experimental: (§1) GH3b6 cells are a subclone of the GH3 pituitary cell line and were a generous gift from Dr. Françoise Macari (IGF, Montpellier, France). GH3b6 cells were cultivated from passage 14 until passage 32 at 37 °C/5% CO2 in Dubelcco’s Modified Eagle Medium (DMEM)/F12 (Lonza, Basel, Switzerland), supplemented with 10% FBS (Lonza, Basel, Switzerland), 1 mM L-glutamine, and 1 mM penicillin and streptomycin solution. For the fluorescence assay, the GH3b6 cells were seeded in black-walled, clear-bottom, 96-well, tissue culture-treated, and sterile imaging plates (Corning Hazebrouck, France), at a density of 10,000 cells per well, and incubated for 24 h before starting the experiment. The human Nav1.3 (hNav1.3) channel-expressing cell line (HEK293) used in this work was a generous gift from Massimo Mantegazza (IPMC, Nice, France). HEK293-hNaV1.3 cells were cultivated from passage 20 until passage 35 at 37 °C/5% CO2 in a DMEM high glucose medium (4.5 g/l), supplemented with 10% FBS, pyruvate, L-glutamine, and penicillin and streptomycin solution, each one at 1 mM, completed with 800 µg/mL geneticin G418. For the fluorescence assays, the cells were plated at a density of 50,000 cells per well in black-walled, clear-bottom, 96-well plates and then cultured at 37 °C and 5% CO2 for 24 h before the experiments. HEK293 stably expressing hNaV1.2 and hNaV1.6 were cultivated in the same conditions mentioned above for the HEK293-hNaV1.3 cells. For the automated patch-clamp experiments, cells were passaged from 24 to 48 h prior to the experiment and replated in the appropriate quantity to reach 50–70% confluence. For electrophysiological recordings, cells were detached with trypsin-EDTA and diluted in a culture medium. Then, the cells were centrifuged at 800 rpm for 4 min and resuspended (~300,000 cells/mL) in a patch-clamp extracellular solution.
# (§2) Whole-cell recordings were used to investigate the effects of oxostephanine, liriodenine, thalmiculine, bebeerine, and protopine on HEK293 cells stably expressing the hNav1.2, hNav1.3, and hNav1.6 channels. Automated patch-clamp recordings were performed using the SyncroPatch 384PE from Nanion (München, Germany). Chips with a single hole (n = 384, series resistance 3.93 ± 1.19 MΩ) were used for HEK293 cell recordings. Pulse generation and data collection were performed with the PatchControl384 v1.9.7 software (Nanion) and the Biomek interface (Beckman Coulter). Whole-cell recordings were conducted according to the recommended procedures of Nanion. The cells were stored in a cell hotel reservoir at 10 °C, with a shaking speed of 60 RPM. After initiating the experiment, cell catch, sealing, whole-cell formation, liquid application, recording, and data acquisition were all performed sequentially and automatically. The intracellular solution contained (in mM): 10 CsCl, 110 CsF, 10 NaCl, 10 EGTA, and 10 HEPES (pH 7.2, osmolarity 280 mOsm), and the extracellular solution contained (in mM): 60 NMDG, 80 NaCl, 4 KCl, 2 CaCl2, 1 MgCl2, 5 Glucose, and 10 HEPES (pH 7.4 (NaOH), osmolarity 280 ± 3 mOsm). Whole-cell experiments were performed at a holding potential of −100 mV at room temperature (18–22 °C). Currents were sampled at 20 kHz. For pharmacological assays, alkaloid solutions were prepared at 30 µM in the extracellular solution supplemented with 0.3% bovine serum albumin and distributed in 384-well compound plates according to a pre-established plate plan. This distribution within compound plates could not be randomized since it would then excessively complexify the methods of analyses. The working compound solution was diluted 3 times in the patch-clamp recording well by adding from 30 to 60 µL of the external solution to reach the final reported concentration and the test volume of 90 µL. The effects of IA (10 µM) or of BTX (1 µM) were measured at the end of a 10 min application time. Activation curves were built by depolarizations lasting for 2000 ms, from −130 mV to 40 mV, using 5 mV increment steps. […]
# hNaV1.3 channel = biological target: T2, hNaV1.3 channel (Homo sapiens, UniProt Q9NY46); assay: Automated patch-clamp, Na+ currents in HEK293-hNaV1.3 cells; format: cell-based; conditions: for Effect on Na+ currents elicited by hNaV1.3: HEK293-hNaV1.3, without BTX
# T2 construct: expressed in transfected cells
# Experimental: as §1, §2
# hNaV1.6 channel = biological target: T3, hNaV1.6 channel (Homo sapiens, UniProt Q9UQD0); assay: Automated patch-clamp, Na+ currents in HEK293-hNaV1.6 cells; format: cell-based; conditions: for inhibition at 10 µM / Change in V1/2 of activation and inactivation vs control / Effect on Na+ currents elicited by hNaV1.6: 10 µM; for Effect on Na+ currents elicited by hNaV1.6: HEK293-hNaV1.6
# T3 construct: expressed in transfected cells
# T3 sequence (Q9UQD0 whole entry): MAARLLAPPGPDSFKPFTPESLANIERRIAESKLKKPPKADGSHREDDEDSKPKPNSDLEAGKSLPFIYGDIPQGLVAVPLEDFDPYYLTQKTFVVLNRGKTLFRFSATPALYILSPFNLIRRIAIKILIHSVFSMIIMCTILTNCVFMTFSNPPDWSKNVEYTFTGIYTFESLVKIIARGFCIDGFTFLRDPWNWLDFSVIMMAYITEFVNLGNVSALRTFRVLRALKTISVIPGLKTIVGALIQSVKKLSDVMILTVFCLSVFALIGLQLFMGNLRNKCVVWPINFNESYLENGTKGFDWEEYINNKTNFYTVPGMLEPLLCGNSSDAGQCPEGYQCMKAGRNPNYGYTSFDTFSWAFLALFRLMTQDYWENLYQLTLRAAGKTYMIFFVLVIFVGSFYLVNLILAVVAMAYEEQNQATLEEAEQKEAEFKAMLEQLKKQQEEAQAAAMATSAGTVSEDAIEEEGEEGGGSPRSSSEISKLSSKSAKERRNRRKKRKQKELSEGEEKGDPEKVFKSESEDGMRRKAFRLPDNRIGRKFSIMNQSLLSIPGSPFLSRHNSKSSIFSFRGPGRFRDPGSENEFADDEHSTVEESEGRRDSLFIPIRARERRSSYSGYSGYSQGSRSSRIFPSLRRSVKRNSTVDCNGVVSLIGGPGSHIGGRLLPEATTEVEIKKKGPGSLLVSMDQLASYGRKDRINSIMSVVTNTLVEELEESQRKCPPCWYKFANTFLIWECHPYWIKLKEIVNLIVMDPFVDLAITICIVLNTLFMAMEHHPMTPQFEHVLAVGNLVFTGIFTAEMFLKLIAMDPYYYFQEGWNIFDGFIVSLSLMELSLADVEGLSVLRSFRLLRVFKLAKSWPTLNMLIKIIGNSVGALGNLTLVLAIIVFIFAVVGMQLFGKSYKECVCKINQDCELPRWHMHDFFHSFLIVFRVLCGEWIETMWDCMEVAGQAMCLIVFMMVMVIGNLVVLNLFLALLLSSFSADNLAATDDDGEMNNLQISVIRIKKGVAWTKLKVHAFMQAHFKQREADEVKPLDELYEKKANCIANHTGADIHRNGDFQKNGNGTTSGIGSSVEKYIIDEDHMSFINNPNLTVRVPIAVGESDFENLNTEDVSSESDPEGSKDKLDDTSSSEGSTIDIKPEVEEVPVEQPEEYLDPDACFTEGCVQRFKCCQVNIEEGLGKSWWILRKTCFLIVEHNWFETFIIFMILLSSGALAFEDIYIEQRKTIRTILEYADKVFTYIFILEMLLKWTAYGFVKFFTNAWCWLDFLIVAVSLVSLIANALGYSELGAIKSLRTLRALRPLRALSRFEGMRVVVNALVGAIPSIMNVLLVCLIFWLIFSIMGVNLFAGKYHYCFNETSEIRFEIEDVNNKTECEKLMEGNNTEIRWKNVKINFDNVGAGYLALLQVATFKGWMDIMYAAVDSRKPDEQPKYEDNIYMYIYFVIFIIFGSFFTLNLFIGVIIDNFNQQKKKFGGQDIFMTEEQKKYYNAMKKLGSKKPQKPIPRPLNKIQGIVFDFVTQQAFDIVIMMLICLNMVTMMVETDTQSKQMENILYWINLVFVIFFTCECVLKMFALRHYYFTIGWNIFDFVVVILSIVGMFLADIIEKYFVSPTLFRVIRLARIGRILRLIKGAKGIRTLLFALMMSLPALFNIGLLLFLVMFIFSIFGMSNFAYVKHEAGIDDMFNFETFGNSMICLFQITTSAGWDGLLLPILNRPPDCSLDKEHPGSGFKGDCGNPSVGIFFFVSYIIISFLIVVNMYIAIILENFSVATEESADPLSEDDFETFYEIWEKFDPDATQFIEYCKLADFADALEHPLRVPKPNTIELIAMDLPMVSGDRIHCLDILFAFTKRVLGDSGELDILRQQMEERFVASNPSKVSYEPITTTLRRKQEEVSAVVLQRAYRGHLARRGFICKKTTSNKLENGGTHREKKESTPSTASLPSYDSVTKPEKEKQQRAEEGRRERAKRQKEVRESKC
# Experimental: as §1, §2
# [2] = 10 µM, Vm between −20 mV and 30 mV
# [3] = IA at 10 µM, BTX 3 µM, HEK293-hNaV1.3
compound,measurement,setting,value
"COc1ccc2cc1Oc1ccc(cc1)C[C@H]1c3cc(c(OC)cc3CCN1C)Oc1c(OC)c(OC)cc3c1[C@H](C2)N(C)CC3 [IA50, tetrandine]",Inhibitory Effects (%) on BTX-induced VSP signal (screening),[1],78.3%
"COc1cc2c3cc1Oc1cc(ccc1O)CC1c4c(cc(OC)c(O)c4Oc4ccc(cc4)CC3N(C)CC2)CCN1C (stereo not drawn) [IA52, bebeerine]",Maximum of Inhibition of BTX-evoked VSP signal,[1],41.04 ± 3.44%
same,IC50,[1],0.74 ± 0.11 µM
same,Inhibitory Effects (%) on BTX-induced VSP signal (screening),[1],81.9%
same,inhibition at 10 µM,"human NaV1.3 channel; IA at 10 µM, BTX 3 µM, HEK293-hNaV1.3, read-out: Inhibition of BTX-induced [Na+]i elevation (ANG-2 signal)",18 ± 2%
same,inhibition at 10 µM,hNaV1.2 channel; [2],42 to 50%
same,IC50,"hNaV1.2 channel; estimated from inhibition at 10 µM, read-out: IC50 on Na+ currents elicited by hNaV1.2",< 10 µM and > 10 µM
same,Change in V1/2 of activation and inactivation vs control,"hNaV1.2 channel; hNaV1.2, 10 µM",no significant change
same,Activation Slope (±SEM),"hNaV1.2 channel; hNaV1.2, 10 µM bebeerine",5.8 ± 0.3 ^1
same,"Activation V1/2 (±SEM, mV)","hNaV1.2 channel; hNaV1.2, 10 µM bebeerine",−29.1 ± 1.1 (n = 36) mV
same,Inactivation Slope (±SEM),"hNaV1.2 channel; hNaV1.2, 10 µM bebeerine",−8.5 ± 0.3 ^4
same,"Inactivation V1/2 (±SEM, mV)","hNaV1.2 channel; hNaV1.2, 10 µM bebeerine",−62.3 ± 1.1 (n = 21) mV
same,inhibition at 10 µM,hNaV1.3 channel; [2],60 to 64%
same,inhibition at 10 µM,"hNaV1.3 channel; 10 µM, at −15 mV",64 ± 4%
same,Shift in V1/2 activation vs control,"hNaV1.3 channel; hNaV1.3, 10 µM",−3.6 ± 1.0
same,Activation Slope (±SEM),"hNaV1.3 channel; hNaV1.3, 10 µM bebeerine",6.4 ± 0.3 ^2
same,"Activation V1/2 (±SEM, mV)","hNaV1.3 channel; hNaV1.3, 10 µM bebeerine",−26.9 ± 0.7 (n = 51) mV
same,Inactivation Slope (±SEM),"hNaV1.3 channel; hNaV1.3, 10 µM bebeerine",−8.9 ± 0.3 ^5
same,"Inactivation V1/2 (±SEM, mV)","hNaV1.3 channel; hNaV1.3, 10 µM bebeerine",−60.2 ± 0.9 (n = 26) mV
same,inhibition at 10 µM,hNaV1.6 channel; Vm between −20 mV and 30 mV,70 to 74%
same,inhibition at 10 µM,hNaV1.6 channel; at −20 mV,74 ± 3%
same,IC50,"hNaV1.6 channel; estimated from inhibition at 10 µM, read-out: IC50 on Na+ currents elicited by hNaV1.6",< 10 µM and > 10 µM
same,Change in V1/2 of activation and inactivation vs control,hNaV1.6 channel; hNaV1.6,no significant change
same,Activation Slope (±SEM),"hNaV1.6 channel; hNaV1.6, 10 µM bebeerine",7.0 ± 0.3 ^3
same,"Activation V1/2 (±SEM, mV)","hNaV1.6 channel; hNaV1.6, 10 µM bebeerine",−22.1 ± 0.7 (n = 32) mV
same,Inactivation Slope (±SEM),"hNaV1.6 channel; hNaV1.6, 10 µM bebeerine",−9.0 ± 0.3 ^6
same,"Inactivation V1/2 (±SEM, mV)","hNaV1.6 channel; hNaV1.6, 10 µM bebeerine",−60.2 ± 0.7 (n = 24) mV
"NC1=N[C@H](O)[C@H]2[C@H]3O[C@]4(O)O[C@@H]([C@@H](O)[C@@]2(N1)[C@@H]4O)[C@]3(O)CO [TTX, tetrodotoxin, reference compound]",Effect on VSP fluorescence emission ratio induced by BTX,[1],fully abolished
same,IC50 of TTX on VSP signal ratio induced by BTX,[1],0.00858 ± 0.00167 µM
same,Inhibition of BTX-induced ANG-2 fluorescence ratio,human NaV1.3 channel,92 ± 5%
gyrocarpusine [IA42],Inhibitory Effects (%) on BTX-induced VSP signal (screening),[1],78.5%
protopine [IA69],Maximum of Inhibition of BTX-evoked VSP signal,[1],64.67 ± 5.50%
same,IC50,[1],3.97 ± 0.1 µM
same,Inhibitory Effects (%) on BTX-induced VSP signal (screening),[1],99.9%
same,Inhibition of BTX-induced [Na+]i elevation (ANG-2 signal),human NaV1.3 channel; [3],no significant inhibitory effects
same,Effect on Na+ currents elicited by hNaV1.2,hNaV1.2 channel; 10 µM,no effects
same,Change in V1/2 of activation and inactivation vs control,"hNaV1.2 channel; hNaV1.2, 10 µM",ns
same,Effect on Na+ currents elicited by hNaV1.3,hNaV1.3 channel; 10 µM,no effects
same,Change in V1/2 of activation and inactivation vs control,"hNaV1.3 channel; hNaV1.3, 10 µM",ns
same,Effect on Na+ currents elicited by hNaV1.6,hNaV1.6 channel,no effects
same,Change in V1/2 of activation and inactivation vs control,hNaV1.6 channel; hNaV1.6,ns
thalmiculine [IA49],Maximum of Inhibition of BTX-evoked VSP signal,[1],31.07 ± 4.04%
same,IC50,[1],0.38 ± 0.19 µM
same,Inhibitory Effects (%) on BTX-induced VSP signal (screening),[1],91.1%
same,Inhibition of BTX-induced [Na+]i elevation (ANG-2 signal),human NaV1.3 channel; [3],no significant inhibitory effects
same,Effect on Na+ currents elicited by hNaV1.2,hNaV1.2 channel; 10 µM,no effects
same,Change in V1/2 of activation and inactivation vs control,"hNaV1.2 channel; hNaV1.2, 10 µM",ns
same,Effect on Na+ currents elicited by hNaV1.3,hNaV1.3 channel; 10 µM,no effects
same,Change in V1/2 of activation and inactivation vs control,"hNaV1.3 channel; hNaV1.3, 10 µM",ns
same,Effect on Na+ currents elicited by hNaV1.6,hNaV1.6 channel,no effects
same,Change in V1/2 of activation and inactivation vs control,hNaV1.6 channel; hNaV1.6,ns

# Source: publication PMC9268414, “Screening an In-House Isoquinoline Alkaloids Library for New Blockers of Voltage-Gated Na^+ Channels Using Voltage Sensor Fluorescent Probes: Hits and Biases” (Molecules, 2022)
